Tests used:
TGFβ signaling = test: Ex vivo mouse lung biopsies treated with granulocytes, then TGFβ inhibitors; type: cell-based; conditions: for matrix invasion: in the presence of granulocytes; for phosphorylated SMAD (pSMAD): mouse lung biopsies treated with granulocytes
Description: (§1) C57BL/6J male mice (6-8 weeks age) used to study the movement of lung matrix. After organ withdrawal 4 mm biopsy punches of murine lungs were generated. To obtain ectopic labeling of matrix, the inventors generated a labelling solution by mixing NHS-ester 1:1 with 100 mM pH 9.0 sodium bicarbonate buffer. Sterile Whatman filter paper (Sigma Aldrich) biopsy punches where soaked in NHS-labelling solution, and locally placed on the lung biopsy surface. After one minute, the labelling punch was removed. Mouse lung biopsies were cocultured in the RPMI medium (10% FBS with 1% Pen/Strep and 0.1% AmB) consist of different sub types of immune cells (0.1×10^6 cells/biopsy) isolated from the healthy and idiopathic pulmonary fibrosis human donors. Mouse lung biopsies with immune cells were then cultured in the ex vivo condition provided with 5% C02 at 37° C.
(§2) After 48 hours, mouse lung biopsies were fixed with the 4% formalin and incubated for overnight at 4° C. followed by PBS wash. Human lung tissues where obtained, labelled, and cultivated for 24 hours as described above.
(§3) Matrix invasion was calculated using histological sections, quantifying FITC signal per area via ImageJ (1.52i). Quantification of immunolabeling was performed in randomly distributed ROIs/FOVs. Multiphoton images were analyzed using Fiji plugins Fraklac V. 2.5 and LocalThickness_V-4.0.2.
The inventors sought to characterize the signaling pathways by which immune cells trigger matrix invasion and fibrosis and we naturally sought to investigate the known chief proponent, TGFβ. They wondered whether the fibrotic cascade of immune cells might start with mesothelial TGFβ expression. Mouse lung biopsies were treated with granulocytes, followed by administering two TGFβ inhibitors, Repsox and LDN-212854, in separate experiments (FIG. 2A). Inhibition of TGFβ signaling in both chemical assays decreased phosphorylated SMAD (pSMAD), which is the major mediator of TGFβ-induced signaling. Furthermore, inhibiting TGFβ reduced matrix invasion, even in the presence of granulocytes. Moreover, adding granulocytes alone led to increased phosphorylated SMAD signaling in mesothelium. These findings indicate granulocytes trigger TGFβ expression in mesothelium to initiate matrix accumulation and irrigation.

C57BL/6J mice = test: Pharmacologic treatment regime in the bleomycin-induced lung fibrosis model; type: in vivo, mouse; conditions: for pleural matrix pools: after bleomycin-induced injury
Description: The inventors generated a labelling solution by mixing 5 μl NHS-ester (25 mg/ml) with 5 μl of 100 mM pH 9.0 sodium bicarbonate buffer, combining with 40 μl PBS to a total volume of 50 μl. Labelling solution was applied intrapleurally (for lung and/or heart fibrosis model) under isoflurane anesthesia with a 30 G cannula. Abdominal labeling was performed by injecting 100 μl of labelling solution intra-peritoneal (for liver and/or kidney fibrosis model).
The oropharyngeal administration of bleomycin for the induction of pulmonary fibrosis is carried out in an antagonistic anesthesia in C57BL/6J mice of both sexes (6-8 weeks age). After the toe-pinch reflex is absent, the mouse is placed on the incisors of the upper jaw and thus kept in an upright position. The tongue is carefully fixed with is held to the side with tweezers and the nose of the animal is covered with tweezers. By keeping the nose closed, the mouse is forced to breathe through the mouth. With the help of a pipette, bleomycin is dissolved in a dosage of 2 units/kg KGW in 80 μl PBS carefully into the throat. As soon as the animal has inhaled the solution, it will be
Hot plate transferred (duration approx. 30 to 60 seconds). After antagonization animals were housed for 14 days. Nintedanib was added 1 hour before bleomycin installation and every other day intra peritoneal 10 μM.
Pirfenidone (0.07 mg/kg), Nintedanib (0.21 mg/kg) and Cathepsin Inhibitor B (0.15 mg/kg) were injected 1 hour before bleomycin installation and every other day intra peritoneal in a volume of 100 μl in physiological saline solution.
as §3

[1] = tested on: fibrotic human lung tissue; test: Ex vivo matrix flow in fibrotic human lung tissue; type: cell-based
Description: All tissues (PFA, ST) used in this study were obtained with properly informed consent of patients. All experimental procedures were performed in accordance with the Ethics committee vote number/Study protocol number: 333-10 Parent Proposal number: BA34/2018.
as §1, §2

[2] = bleomycin, intra peritoneal 1 hour before and every other day

Q: Which results are given for c1cc(-c2cnn3cc(-c4ccc(N5CCNCC5)cc4)cnc23)c2cccnc2c1 [LDN-212854]?
A: matrix invasion (TGFβ signaling): reduced; phosphorylated SMAD (pSMAD) (TGFβ signaling): decreased

Q: For COC(=O)c1ccc2c(c1)NC(=O)/C2=C(\Nc1ccc(N(C)C(=O)CN2CCN(C)CC2)cc1)c1ccccc1 [Nintedanib], which pleural matrix pools (C57BL/6J mice) is on record?
A: The pleural matrix pools was “rescue”.

Q: And the bleomycin-induced mortality (C57BL/6J mice; [2])?
A: Its bleomycin-induced mortality is “prevent”.

Q: What about the “matrix invasion into lungs (matrix movements)” value (C57BL/6J mice; [2]) of the same molecule?
A: The value was “inhibiting matrix movements”.

Q: And the “survival rates of lung injured animals” value (C57BL/6J mice; [2])?
A: The value was “comparable”.

Q: Which results are given for Cc1ccc(=O)n(-c2ccccc2)c1 [Pirfenidone]?
A: pleural matrix pools (C57BL/6J mice): rescue; bleomycin-induced mortality (C57BL/6J mice; [2]): prevent; matrix invasion into lungs (matrix movements) (C57BL/6J mice; [2]): inhibiting matrix movements; survival rates of lung injured animals (C57BL/6J mice; [2]): comparable

Q: What does the source list for Cc1cccc(-c2[nH]ncc2-c2ccc3ncccc3n2)n1 [Repsox]?
A: matrix invasion (TGFβ signaling): reduced; phosphorylated SMAD (pSMAD) (TGFβ signaling): decreased

Q: What does the source list for CC(NC(=O)[C@H](Cc1ccccc1)NC(=O)OCc1ccccc1)C(=O)CF (stereo partly shown) [Z-FA-FMK]?
A: pleural matrix pools (C57BL/6J mice): rescue; bleomycin-induced mortality (C57BL/6J mice; [2]): abrogated; fibrosis development (C57BL/6J mice; [2]): completely prevented; matrix invasion into lungs (matrix movements) (C57BL/6J mice; [2]): completely prevented; survival rates of lung injured animals (C57BL/6J mice; [2]): 100%; bleomycin-induced mortality (C57BL/6J mice; bleomycin, intra peritoneal 1 hour before and every other day, listed as Cathepsin B inhibitor): prevent; fluid matrix flows [1]: blocks

From US20250333482A1, “MODULATORS OF MESOTHELIAL ECM MOVEMENT” (Helmholtz Zentrum München Deutsches Forschungszentrum Für …, priority 2021, published 2025)
